Read-outs that look alike come from different tables or passages of the source.
How the values were obtained:
[1] = target: SARS-CoV-2 main protease (Mpro) (Severe acute respiratory syndrome coronavirus 2, UniProt P0DTD1); assay: biochemical
[2] = system: SARS-CoV-2 (strain USA-WA1/2020); assay: microbe, parasite or virus in culture; assay type: cell-based
HeLa-ACE2 cells = assay: cells; assay type: cell-based; settings: Table 2, total cell count in infected plates
[3] = Uninfected host cell cytotoxicity counter screen; assay type: cell-based; settings: human
Procedure: Uninfected host cell cytotoxicity counter screen: HeLa-ACE2 cells were maintained as described for the infection assay and seeded in the assay-ready plates at 400 cells/well. Plates were incubated for 24 hours at 37° C. 5% CO2. To assess cell viability, the Image-iT DEAD green reagent was used according to manufacturer instructions. Cells were fixed with 4% paraformaldehyde, and counterstained with DAPI. Fixed cells are imaged as described above.
Viral replication data analysis: Data from the primary screen and the host cell cytotoxicity screen are normalized to neutral (DMSO) […] inhibitor controls (2.5 μM Remdesivir for antiviral effect and 10 μM puromycin for infected host cell toxicity). For the uninfected host cell cytotoxicity counter-screen 40 μM puromycin is used as the positive control. Concentration response experiments will be tested in triplicate.

[4] = Severe acute respiratory syndrome coronavirus 2, Table 2, SARS-CoV-2 infected HeLa-ACE2 cells, read-out: CoV-2 HeLa EC50
[5] = Severe acute respiratory syndrome coronavirus 2, HeLa-ACE2, read-out: CoV-2 HeLa EC50, Table 2, SARS-CoV-2 infected HeLa-ACE2 cells
[6] = Table 2, uninfected cells, 24 hours, read-out: Uninfected HeLa-ACE2 CC50

Compound | IC50 ([1]; Table 2, read-out: Enzyme IC50) [nM] | EC50 [2, 4] [nM] | EC50 (HeLa-ACE2 cells) [µM] | CC50 at 24 h [3] [µM] | IC50 ([1]; Enzyme IC50, Table 2) [nM] | EC50 [2, 5] [nM] | CC50 at 24 h [3, 6] [µM] | IC50 ([1]; Enzyme IC50, Table 3, select example compounds against mpro) [nM] | EC50 ([2]; Severe acute respiratory syndrome coronavirus 2, HeLa, read-out: CoV-2 HeLa EC50, Table 3) [nM] | IC50 ([1]; Table 3, select example compounds against mpro, read-out: Enzyme IC50) [nM] | EC50 ([2]; Severe acute respiratory syndrome coronavirus 2, HeLa, Table 3, read-out: CoV-2 HeLa EC50) [nM]
O=C(c1cncc(Br)c1)N1CCN(C(c2ccccc2)c2ccsc2)CC1 (centres unmarked) [MKP-1220, 1-(5-bromopyridine-3-carbonyl)-4-[phenyl(thiophen-3-yl)methyl]piperazine] | 250 | 884 | 2.64 | > 39.8 | – | – | – | – | – | – | –
O=C(c1cncc(O)c1)N1CCN(C(c2ccccc2)c2ccccc2)CC1 [AA-599, (4-benzhydrylpiperazin-1-yl)(5-hydroxypyridin-3-yl)methanone] | 1600 | 6030 | > 9.61 | > 39.8 | – | – | – | – | – | – | –
COc1cccc(C(c2ccccc2)N2CCN(C(=O)c3cncc(F)c3)CC2)c1 (centres unmarked) [MKP-1204, 1-(5-fluoropyridine-3-carbonyl)-4-[(3-methoxyphenyl)(phenyl)methyl] piperazine] | 2300 | 6660 | > 9.61 | > 39.8 | – | – | – | – | – | – | –
O=C(c1cncnc1)N1CCN(C(c2ccccc2)c2ccccc2)CC1 [AA-577, (4-benzhydrylpiperazin-1-yl)(pyrimidin-5-yl)methanone] | 8300 | 8510 | > 9.61 | > 39.8 | – | – | – | – | – | – | –
O=C(c1cncc2nc[nH]c12)N1CC2CCC(C1)N2C(c1ccccc1)c1ccccc1 [AA-642, (8-benzhydryl-3,8-diazabicyclo[3.2.1]octan-3-yl)(1H-imidazo[4,5-c]pyridin-7-yl)methanone] | – | – | 3.24 | – | 210 | 1050 | > 39.8 | – | – | – | –
O=C(c1cc[nH]c(=O)c1)N1CCN(C2c3ccccc3CCc3ccccc32)CC1 [ZS-320, 4-[4-(2-tricyclo[9.4.0.03,8]pentadeca-1(11),3(8),4,6,12,14-hexaenyl)piperazine-1-carbonyl]-1H-pyridin-2-one] | 1180 | 2530 | > 9.61 | > 39.8 | – | – | – | – | – | – | –
O=C(c1cncc(Cl)c1)N1CCN(C(c2ccccc2)c2cccc(F)c2)CC1 (centres unmarked) [MKP-1227, 1-(5-chloropyridine-3-carbonyl)-4-[(3-fluorophenyl)(phenyl)methyl]piperazine] | 88 | 457 | 0.614 | > 39.8 | – | – | – | – | – | – | –
Cc1cncc(C(=O)N2CCN(C(c3ccccc3)c3ccsc3)CC2)c1 (centres unmarked) [MKP-1222, 1-(5-methylpyridine-3-carbonyl)-4-[phenyl(thiophen-3-yl)methyl]piperazine] | 370 | 1400 | 1.24 | > 39.8 | – | – | – | – | – | – | –
COC(=O)c1cncc(C(=O)N2CCN(C3c4ccccc4CCc4ccccc43)CC2)c1 [ZS-338, methyl 5-[4-(2-tricyclo[9.4.0.03,8]pentadeca-1(11),3(8),4,6,12,14-hexaenyl)piperazine-1-carbonyl]pyridine-3-carboxylate] | > 1000 | 7070 | > 9.61 | > 39.8 | – | – | – | – | – | – | –
Cc1cncc(C(=O)N2CC3CCC(C2)N3C(c2cccc(F)c2)c2cccc(F)c2)c1 [AA-625, (8-(bis(3-fluorophenyl)methyl)-3,8-diazabicyclo[3.2.1]octan-3-yl)(5-methylpyridin-3-yl)methanone] | – | – | 0.085 | – | 33 | 72 | 26.5 | 4 | 72 | – | –
O=C(c1cncc([N+](=O)[O-])c1)N1CCN(C2c3ccccc3CCc3ccccc32)CC1 [ZS-339, (5-nitro-3-pyridyl)-[4-(2-tricyclo[9.4.0.03,8]pentadeca-1(11),3(8),4,6,12,14-hexaenyl)piperazin-1-yl]methanone] | 1150 | 4060 | > 9.61 | > 39.8 | – | – | – | – | – | – | –
O=C(c1cccnc1)N1CCN(C(c2ccccc2)c2ccsc2)CC1 (centres unmarked) [MKP-1215, 1-[phenyl(thiophen-3-yl)methyl]-4-(pyridine-3-carbonyl)piperazine] | 4500 | 2810 | > 9.61 | > 39.8 | – | – | – | – | – | – | –
O=C(c1cncc(F)c1)N1CCC(=C(c2ccccc2)c2ccccc2)CC1 [NZ-780, 3-[4-(diphenylmethylidene)piperidine-1-carbonyl]-5-fluoropyridine] | 310 | 1390 | > 9.61 | 30.1 | – | – | – | – | – | – | –
N#Cc1cncc(C(=O)N2CCN(C(c3ccccc3)c3ccccc3)CC2)c1 [MKP-1230, 5-[4-(diphenylmethyl)piperazine-1-carbonyl]pyridine-3-carbonitrile] | 1300 | 2800 | > 9.61 | > 39.8 | – | – | – | – | – | – | –
COc1cncc(C(=O)N2CCN(C3c4ccccc4CCc4ccccc43)CC2)c1 [ZS-319, (5-methoxy-3-pyridyl)-[4-(2-tricyclo[9.4.0.03,8]pentadeca-1(11),3(8),4,6,12,14-hexaenyl)piperazin-1-yl]methanone] | 210 | 920 | > 9.61 | 32.1 | – | – | – | – | – | – | –
O=C(c1cncc2cc[nH]c12)N1CCN(C2c3ccccc3CS(=O)(=O)c3ccccc32)CC1 (centres unmarked) [NZ-808, [4-(5,5-dioxo-6,11-dihydrobenzo[c][1]benzothiepin-11-yl)piperazin-1-yl]-(1H-pyrrolo[3,2-c]pyridin-7-yl)methanone] | 32 | 25 | 0.03 | > 39.8 | – | – | – | – | – | 10 | 25
COc1cncc(C(=O)N2CCN(C(c3ccccc3)c3ccccc3)CC2)c1 [AA-589, (4-benzhydrylpiperazin-1-yl)(5-methoxypyridin-3-yl)methanone] | 480 | 1430 | > 9.61 | > 39.8 | – | – | – | – | – | – | –
Cc1cncc(C(=O)N2CCN(C(c3ccc(F)cc3)c3ccccc3F)CC2)c1 (centres unmarked) [MKP-1277, 1-[(2-fluorophenyl)(4-fluorophenyl)methyl]-4-(5-methylpyridine-3-carbonyl)piperazine] | 150 | 747 | 2.7 | > 39.8 | – | – | – | – | – | – | –
O=C(c1cncc2nc[nH]c12)N1CCC(=C2c3ccccc3CS(=O)(=O)c3ccccc32)CC1 [NZ-803, [4-(5,5-dioxo-6H-benzo[c][1]benzothiepin-11-ylidene)-1-piperidyl]-(1H-imidazo[4,5-c]pyridin-7-yl)methanone] | 91 | 183 | 0.325 | > 39.8 | – | – | – | – | – | – | –
O=C(c1cccnc1)N1CCN(C2c3ccccc3CCc3ccccc32)CC1 [ZS-312, 3-pyridyl-[4-(2-tricyclo[9.4.0.03,8]pentadeca-1(11),3(8),4,6,12,14-hexaenyl)piperazin-1-yl]methanone] | 440 | 1040 | > 9.61 | > 39.8 | – | – | – | – | – | – | –
O=C(c1cncc(Cl)c1)N1CCN(C(c2ccccc2)c2cccnc2)CC1 (centres unmarked) [MKP-1193, 1-(5-chloropyridine-3-carbonyl)-4-[phenyl(pyridin-3-yl)methyl]piperazine] | 450 | 810 | > 9.61 | > 39.8 | – | – | – | – | – | – | –
Cc1cncc(C(=O)N2CC3CCC(C2)N3C(c2ccccc2)c2ccccc2)n1 [AA-658, (8-benzhydryl-3,8-diazabicyclo[3.2.1]octan-3-yl)-(6-methylpyrazin-2-yl)methanone] | – | – | > 9.61 | – | 800 | 1950 | > 39.8 | – | – | – | –
